One test has as its system Jurkat cells. Put plainly: Flow cytometry of GFP fluorescence in transduced Jurkat cells. Format: cell-based. Here is the method: Transduced cells either received no treatment or were treated with 40 μM of biotin for 15 minutes, 60-75 minutes or overnight (0/N).
The RPMI medium was supplemented with 14 μg/mL of avidin to chelate the existing biotin present in the medium.
(§1) After incubation with biotin, the cells were immediately transfer on ice, to inhibit or slow down the traffic of the cargo, followed by centrifugation (300 g, 4° C., 5 minutes), washed twice in cold 1×PBS (300 g, 4° C., 5 minutes) and incubated with live/dead fixable staining (20 minutes, on ice; Thermofisher). The cells were then washed twice in cold PBS (300 g, 4° C., 5 minutes) or FACS buffer (1×PBS, 1% BSA, 0.05% sodium azide, 1 mL EDTA 0.5 M, filtered and kept at 4° C.) and, when not analyzed immediately, the cells were fixed in 3% PFA-1×PBS (10 minutes, RT) and washed twice in 1×PBS.
Transduced cells either received no treatment or were treated with 40 μM of biotin for 6 hours.
Transduction of HEK293FT and Jurkat cells were done using the same volume v/v of particles for each construct increasingly.
The expression of the cytokine was evaluated by measuring GFP using flow cytometry, three days later for HEK293FT and more than six days later for Jurkat cells. […]
For both types of cells, the expression of the cytokine was evaluated by measuring GFP using flow cytometry, 3 days later for HEK293FT and more than 6 days later for Jurkat cells. […]
On the technique in general: Flow cytometry measures light scatter and fluorescence of single cells or particles in a stream.

Test [1] relates to Primary CD8+ T or CD4/CD8+ T cells. The test can be described thus: Flow cytometry of GFP fluorescence in transduced primary T cells. It is filed as cell-based, human. Here is the method: T cells were isolated from leukocyte reduction system chamber (LRSC) from blood of healthy donors by negative selection using the EasySep Direct Human T cell isolation kit (STEM cells) or MACSxpress LRSC Pan T Cell Isolation Kit, human (Miltenyi) according to the manufacturer's instructions.
Primary CD8^+ T or CD4/CD8^+ T cells were plated into culture plates and transduced with said lentiviral particle at a MOI between 1 and 5 for 3 days.
Primary CD8^+ T or CD4/CD8^+ T cells were plated into culture plates for Flow cytometry assay.
To prevent cytokines released due to the possible presence of biotin in TexMacs buffer, 1 μg/mL of avidin was added to chelate biotin, starting from the day of transduction and following days of cell culture. […]
as §1

The subject of a further test is CTLL-2 NFκB cells. Put plainly: IL-2-induced proliferation of CTLL-2 NFκB cells. The conditions noted are these: medium of transduced HeLa cells. Format: cell-based. How it is done:
The relative proliferation and NFκB response measured by luminescence in CTLL2 NFκB was determined as described by Mock et al. (2020. Sci Rep. 10(1):3234). Briefly, CTLL2 NFκB were starved for about 24 hours, i.e., incubated for 24 hours without IL-2 to reduce the background due to the presence of IL-2 in the medium. After starvation, the cells (approximately 50 000 cells/well) in a cell culture 96-well plate (flat bottom) were incubated with the supernatant of the transduced cells either non-treated or treated with biotin diluted at 1/80 to a final volume of 200 μL. The cells were incubated for 72 hours at 37° C. and 5% of C02.
For CTLL-2 proliferation, CellTiter 96 Aqueous One Solution (Promega) was used according to the manufacturer's instructions. Briefly, 100 μL of the cells medium were removed and 20 μL of CellTiter 96 Aqueous One Solution (Promega) were added and incubated at least for 1 hours at 37° C. and 5% of CO2 before reading the absorbance at 490 nm. The relative proliferation or luminescence was determined by dividing the absorbance of treated cells by non-treated cells.

Test [2] concerns HeLa cells. Put plainly: Western blot (GFP revelation) of cell medium and cell extract of transduced HeLa cells. Format: cell-based. Conditions: 40 μM biotin, 60 minutes or O/N. Here is the method: Cells for western blotting were treated either treated or not with 40 μM biotin or higher for 60 minutes or over-night (0/N).
After biotin treatment, the supernatant was recovered and centrifuged for removal of the detached or dead cells at 300 g, 4° C., for 5-10 minutes and kept on ice. While the cells (defined hereafter as pellet) were incubated with protein loading buffer 1×(5 mM Tris-HCl, pH 7.0, 30 mM ethylenediaminetetra acid (EDTA), pH 8.0; 0.01% bromophenol blue, 5% glycerol) for 5 minutes at room temperature, scratched and transfer to a new tube followed by denaturation at 95-100° C. for 10-20 minutes. The supernatant (from adherent or suspension cells) were incubated with StrataClean Resin (Agilent) to collect and concentrate protein present in the supernatant, for at least 2 hours at 4° C. with orbital agitation. […] Cytokines were detected using monoclonal anti-GFP (1/1000; Roche) in 5% skim milk in 0.1% Tween-20 PBS for 1 hour at room temperature or overnight (0/N) at 4° C., followed by the respective horseradish peroxidase (HRP) conjugated secondary polyclonal antibody (1/15000) in 5% skim milk in 0.1% Tween-20 PBS for 1 hour at room temperature. […]
On the technique in general: A western blot detects proteins with antibodies after separation by electrophoresis.

Test [3] deals with HEK blue IL-2 reporter cell line. The test can be described thus: Cytokine activity of medium of transduced HeLa cells on reporter cell line HEK blue IL-2. Format: cell-based. The conditions noted are these: no biotin. How it is done:
Cells were treated with 40 μM biotin for 0 minute, 15 minutes, 60 minutes, 90 minutes, 120 minutes or 4320 minutes (=72 hours).
After treatment of the cells, the cell medium (1500 μL) was collected and centrifuged (300 g, 4° C., 5-10 minutes) to remove dead cells.
The cell medium of the RUSH-transduced cells was added into a cell culture 96-well plate (flat bottom) at a dilution 1/80 to 1/100 followed by the platting of HEK-Blue cells at approximately 50 000 cells/well. On the next day (after approximately 24 hours), 20 μL of the supernatant of these cells was transferred to a new plate and 180 μL of QUANTI-Blue substrate was added and incubated at 37° C. and 5% of C02 for 1-3 hours. The absorbance was then measured at 620 nm. The response ratio of the cytokines was determined by dividing the value of absorbance of the treated cells by non-treated cells. The values were them normalized to WT cells line.

The test system of test [4] is HeLa cells. Put plainly: Immunofluorescence of transduced HeLa cells (GFP/Cherry staining), with or without biotin. Conditions: 40 μM biotin. It is filed as cell-based. How it is done: HeLa cells were plated on a cell culture plate and transduced with said lentiviral particle at a MOI between 1 and 5 for 2 days.
Transduced HeLa cells were plated on coverslip for immunofluorescence assay.
Transduced cells either received no treatment or were treated with 40 μM of biotin.
Cells for immunofluorescence assay were either treated or not with 40 μM or higher of biotin for 15 minutes, 75 minutes or 16 hours (steady-state).
Cells coated onto coverslips were washed once in 1×PBS buffer, fixed in 3% of paraformaldehyde (PFA) for 10-15 minutes at room temperature, then washed twice and alternatively incubated with 50 mM of NH4Cl-1×PBS for 5 minutes at room temperature to quench free aldehydes. The cells were then permeabilized using a solution of PBS containing 0.5% Bovine Serum Albumin (BSA) and 0.05% saponin (Saponin, Sigma-Aldrich) for 15 minutes at room temperature. The coverslips were mounted in Mowiol supplemented with DAPI (4′,6-diamidino-2-phenylindole) for DNA staining.

The record followed here is patent publication US20240084354A1, “MEANS AND METHODS FOR REGULATING INTRACELLULAR TRAFFICKING OF SECRETORY OR CELL MEMBRANE-ANCHORED PROTEINS OF INTEREST” (HONING BIOSCIENCES, priority 2020, published 2024).

Entries after “also recorded” stand apart in the source; their conditions may differ.

Regarding “CCL5-SBP-eGFPhibit: RUSH system with CCL5 fused to SBP and to eGFP containing HiBit tag (SEQ ID NO: 604) (VSGWRLFKKIS; HiBit tag)”, the “GFP upon addition of biotin within 6 hours (flow cytometry)” value in the test on Jurkat cells (40 μM biotin, 6 hours) is “showed a decrease in GFP-expressing cells”. Further, in the test with Jurkat cells (no biotin), the “Intracellular GFP expression without biotin treatment (flow cytometry)” value is given as “showed a proper intracellular GFP expression”. In addition, the “GFP-expressing cells upon addition of biotin” value in test [1] (40 μM biotin) is recorded as “decrease of GFP-expressing cells”. In addition, the “Efficiency of transduction / T cells expressing the cytokine” value in test [1] (absence of biotin) worked out at 6%.

Regarding “SPCCL5-IL-2-SBP-eGFP: RUSH system with Interleukin-2 fused to SBP and eGFP using the signal peptide of CCL5 (SEQ ID NO: 603) (MKVSAAALAVILIATALCAPASA; Signal peptide of CCL5)”, the “CTLL-2-NFκB cell proliferation after 4320 minutes of biotin” value in the test with CTLL-2 NFκB cells (biotin 4320 minutes) is “seemed to better sustain cell activation”. In addition, the “CTLL-2-NFκB cell proliferation, biotin for more than 60 minutes” value in the test on CTLL-2 NFκB cells (biotin more than 60 minutes) is “a significant increase in cell proliferation was observed”. For the same substance, the “CTLL-2-NFκB cell proliferation in absence of biotin” value with CTLL-2 NFκB cells (no biotin) is “proliferated”. The “Cytokine secretion in cell medium upon biotin addition (western blot)” value with HeLa cells [2] is listed as “the highest secretion was observed after O/N with biotin”. Besides, the “Response of the reporter cell line in the absence of biotin” value in test [3] is listed as “induced a small response by the reporter cell line”. Further, in the test on HeLa cells [4], the “Traffic and secretion of the cytokine upon biotin addition (immunofluorescence)” value is on record as “After 15 minutes with biotin treatment, the cytokine was localized in the Golgi; also recorded: at 75 minutes, a high percentage of the cytokine still remained in the Golgi; also recorded: At 4 hours, most of the cytokine had been secreted”.
